The numbers were not newly measured in US6384081B2, “Treatment of diseases of the eye characterized by the formation of metalloproteinase” (priority 1998, dated 2002), which cites them from elsewhere.

pIC50: −log10 of the molar value. Read-outs that look alike come from different tables or passages of the source.

Data set [1] has as its system collagenase purified from culture medium of alkali-burned rabbit corneas.
The subject of data set [2] is collagenase.
The subject of data set [3] is TIMP.
For data set [4] the following is noted: rabbit eye, 7 mg/kg intravenously.
Data set [5] has as its system epithelial healing in the rabbit alkali-burn model. The following applies: for mean percentage of epithelial defects: at 14 days.

Turning to spiramycin, the intraocular penetration result (rabbit, in vivo) is “best results”.
For `O=C([O-])CC(O)(CC(=O)[O-])C(=O)[O-].[Na+].[Na+].[Na+]` [sodium citrate], in data set [1] (excess Ca2+), the “reversal of inhibition by excess Ca2+” value is “could be reversed by excess Ca2+”.
On to `CC(C)CC(CS)C(=O)NC(Cc1ccccc1)C(=O)NC(C)C(N)=O` (stereo not drawn) [HSCH2(DL)CH[CH2 CH(CH3)2]CO-Phe-Ala-NH2], for which the negative-log IC50 (pIC50) in data set [1] (synthetic substrate Dnp-Pro-Leu-Gly-Leu-Trp-Ala-D-Arg-NH2, read-out: 50% inhibition (IC50)) is approximately 8.00.
`CC(CN1CC(=O)NC(=O)C1)N1CC(=O)NC(=O)C1` (centres unmarked) [Razoxane]: the collagenase production entry in data set [2] is given as “inhibited collagenase production”. Moreover, the TIMP production entry in data set [3] is given as “stimulated TIMP production”.
With `C[C@H]1c2cccc(O)c2C(=O)C2=C(O)[C@]3(O)C(=O)C(C(N)=O)=C(O)[C@@H](N(C)C)[C@@H]3[C@@H](O)[C@@H]21` [doxycycline], in data set [4], the “Doxycycline concentration in the cornea versus aqueous humor” value is given as “exceeded that in the aqueous humor”, the “Vitreous body doxycycline concentration” value is 0.3 microgram/g and the “penetrability into the tissues” value is given as “good penetrability”. In data set [4] (long-lasting), the “antibiotic concentration in all vascularized ocular structures” value was not below 1 microgram/g.
Regarding `CCC[C@@H]1C[C@@H](C(=O)N[C@@H]([C@H]2O[C@H](SC)[C@H](O)[C@@H](O)[C@H]2O)[C@H](C)Cl)N(C)C1` [clindamycin], for the setting “sub-conjunctival, retrobulbar and intramuscular, one shot, healthy rabbit eye”, the intraocular penetration entry is reported as “best results”.
Consider `CCCC(NC(CC(C)C)C(=O)NC(Cc1ccccc1)C(=O)NC(C)C(N)=O)C(=O)O` (stereo not drawn) [CH3(CH2)2(DL)CH-(COOH)-Leu-Phe-Ala-NH2], for which, in data set [1] (substrate not stated, read-out: IC50), the pIC50 is 4.60.
On to `CC(=O)N[C@@H](CS)C(=O)O` [N-acetylcysteine], for which the pIC50 was more than 2.00 in data set [1] (natural substrate (collagen), read-out: IC50) and 2.57 in data set [1] (synthetic substrate, read-out: IC50).
As for doxycycline hyclate, the “mean percentage of epithelial defects” value in data set [5] (1.5 mg/kg orally daily for 14 days) was 50.7%; in data set [5] (5 mg/kg orally daily for 14 days) it was 7.1%. Further, the corneal reepithelialization result in data set [5] (5 mg/kg/day, systemically administered) is “promotes corneal reepithelialization”.
For the compound `O=C1O[C@H]([C@@H](O)CO)C([O-])=C1O.[Na+]` [Sodium ascorbate], the “inhibition of collagenase-mediated hydrolysis” value in data set [1] (either collagen or the synthetic substrate) is listed as “did not inhibit”.

The pIC50 is −log10 of the IC50, conventionally taken in molar units.
